The values that follow come from patent US20250099433A1, “COMPOSITION AND METHOD FOR TREATMENT OF GRAM NEGATIVE BACTERIAL INFECTION” (The Research Foundation for the State University of New York, priority 2021, published 2025).

The target of one series is ecLpxC (Escherichia coli (strain K12), UniProt P0A725). The series is classed as binding. As to conditions: residence time on ecLpxC at 25° C., displacement by fluorescent ligand. On the procedure:
Compounds were preincubated with ecLpxC and then mixed with a fluorescent LpxC inhibitor PT900.

For series [1], the system named is E. coli strain (K-12, MG1655). The series is described as follows: MIC by microbroth dilution, wild-type E. coli. Conditions: wild-type E. coli K-12 MG1655. Format: cell-based, Escherichia coli. A general note: Dilution methods test growth across graded concentrations, often in twofold steps.
Series [2] concerns FabZ*, hyperactive FabZ strain (L85P). Put plainly: microbe, parasite or virus in culture. The series is classed as cell-based, Escherichia coli. As to conditions: for MIC: Escherichia coli, read-out: MIC (μM) FabZ*.
Series [3] relates to wild-type E. coli (K-12 MG1655). The series is described as follows: Post-antibiotic effect (PAE) in wild-type E. coli. Format: cell-based, Escherichia coli. As to conditions: 1:1000 dilution; for PAE (h) 1x, Wild-type: 1xMIC for 1 h; for PAE (h) 4x, Wild-type: 4xMIC for 1 h; for PAE (h) 16x, Wild-type: 16xMIC for 1 h. The text has this:
FIG. 4. Post-antibiotic effect of the ecLpxC inhibitors on wild-type and FabZ* E. coli. […] PAE data for wild-type E. coli are in panels (a) PT805, (c) PT810 and (e) CHIR-090, and for FabZ* E. coli in (b) PT805, (d) PT810 and (f) CHIR-090.
PAE data for wild-type E. coli are in panels (a) PT805, (c) PT810 and (e) CHIR-090, and for FabZ* E. coli in (b) PT805, (d) PT810 and (f) CHIR-090.

The subject of the next series is FabZ* E. coli. Format: cell-based, Escherichia coli. Conditions: 1:1000 dilution; for PAE (h) 1x, FabZ*: 1xMIC for 1 h; for PAE (h) 4x, FabZ*: 4xMIC for 1 h; for PAE (h) 16x, FabZ*: 16xMIC for 1 h. The text has this:
FIG. 4. Post-antibiotic effect of the ecLpxC inhibitors on wild-type and FabZ* E. coli.
This included use of an E. coli strain (FabZ*) containing a hyperactive mutant of the fatty acid biosynthesis O-hydroxyacyl-ACP enzyme (FabZ), and determination of PAEs for wild-type E. coli in the presence of sub-MIC concentrations of macrolides.

Series [4] relates to wild-type E. coli (K12 MG1655). The series is described as follows: PAE in wild-type E. coli in the presence of sub-MIC azithromycin. Format: cell-based, Escherichia coli. As to conditions: 16xMIC, 37° C.; for PAE (h) (sub-MIC AZ) 16x(0.2): then media with 0.2xMIC azithromycin; for PAE (h) (sub-MIC AZ) 16x(0.4): then media with 0.4xMIC azithromycin. The text has this:
FIG. 6. Post-antibiotic effect in the presence of sub-MIC azithromycin.
The PAE measurements were repeated for wild-type E. coli in the presence of sub-MIC levels of the protein synthesis inhibitor azithromycin.

Series [5] has as its target LpxC from Aquifex aeolicus (aaLpxC) (Aquifex aeolicus (strain VF5), UniProt O67648). As to conditions: cited from earlier work.
The test system of series [6] is wild-type E. coli and FabZ* E. coli. The series is described as follows: Time kill assays in E. coli. Conditions: 4xMIC (16xMIC in FIG. 3), CaMH media, 37° C.
Method: Each time point was performed in duplicate or triplicate and the entire experiment was performed in triplicate. The data points in the figure are the mean values from the independent measurements and the error bars represent the standard deviation from the mean.
The antimicrobial activity of the compounds was examined. […] The post-antibiotic effect (PAE) of the inhibitors was measured by monitoring the regrowth of bacteria following compound washout. […] Bacterial regrowth was monitored by plating samples as a function of time after wash-out and enumerating CFUs.
For series [7] the following is noted: in vivo; cited from earlier work.
The test system of series [8] is P. aeruginosa PAO1. The series is described as follows: Time-kill assays in P. aeruginosa PAO1. As to conditions: PAO1, 4x, 8x and 16xMIC, CAMH media, 37° C.
Method: Time-kill assays. […] The experimental data points are the mean values from triplicate, independent measurements, and the error bars represent the standard deviation from the mean.
Time-Kill Assays. […] Cultures were shaken at 37° C. for 6 h, and 100 μL aliquots were taken at each 1 h time interval and plated in serial dilutions in a Mueller-Hinton agar plate.
Series [9] has as its system P. aeruginosa PAO1. The series is described as follows: MIC by microbroth dilution, P. aeruginosa PAO1. Conditions: Pseudomonas aeruginosa, PAO1, read-out: MIC (μM) (PAO1).
In series [10] the test system is P. aeruginosa PAO1. The series is described as follows: Post-antibiotic effect (PAE) in P. aeruginosa PAO1. As to conditions: 37° C.
Method: Post-antibiotic effect of the paLpxC inhibitors on wild-type P. aeruginosa. […] The experimental data points are the mean values from triplicate, independent measurements, and the error bars represent the standard deviation from the mean.
After incubating the plates overnight at 37° C., CFUs were enumerated, and the PAE values were calculated using a standard method where the time for the bacteria to recover 1 log post drug washout compared to the control was determined (FIG. 17, Table 6).
Post-antibiotic Effect (PAE). PAEs were determined using P. aeruginosa PAO1. […] The compound was washed out by diluting the culture 1000-fold into fresh CAMH-II medium, and the regrowth of bacteria was monitored by taking 100 μL aliquots each hour and plating serial dilutions on Muller-Hinton agar plates.
The subject of series [11] is efflux-pump mutant strain (ΔMexABCDXY) (paEP). Put plainly: MIC by microbroth dilution, efflux-pump mutant P. aeruginosa. As to conditions: Pseudomonas aeruginosa, read-out: MIC (μM) (paEP).
From the text: Bacterial Strains. […] The efflux-pump deficient P. aeruginosa strain (ΔMexABCDXY), N150, was derived from PAO1.
Minimum Inhibitory Concentration (MIC) Measurements.
A further series addresses LpxC from E. coli (Escherichia coli (strain K12), UniProt P0A725). As to conditions: cited from earlier work.
In a further series the target is paLpxC (Pseudomonas aeruginosa (strain ATCC 15692 / DSM 22644 / CIP 104116 / JCM 14847 / LMG 12228 / 1C / PRS 101 / PAO1), UniProt P47205). Put plainly: biochemical. The series is classed as binding.
Chain of paLpxC (P47205 1-299): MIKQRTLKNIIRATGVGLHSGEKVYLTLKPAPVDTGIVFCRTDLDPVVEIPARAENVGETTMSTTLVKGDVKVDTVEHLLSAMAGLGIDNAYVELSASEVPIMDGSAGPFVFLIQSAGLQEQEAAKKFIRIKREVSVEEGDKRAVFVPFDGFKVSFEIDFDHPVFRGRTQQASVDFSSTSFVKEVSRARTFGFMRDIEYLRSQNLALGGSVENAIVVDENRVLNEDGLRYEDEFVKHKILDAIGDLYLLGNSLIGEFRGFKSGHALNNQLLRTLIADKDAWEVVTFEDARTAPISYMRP

Each structure is given as a SMILES string. ≈ marks a conversion by molar mass, not a printed value. Where “and” joins values, the source holds several entries; their conditions need not be identical. Equal entries are not always repeated.

Chain of LpxC from Aquifex aeolicus (aaLpxC) (O67648 whole entry): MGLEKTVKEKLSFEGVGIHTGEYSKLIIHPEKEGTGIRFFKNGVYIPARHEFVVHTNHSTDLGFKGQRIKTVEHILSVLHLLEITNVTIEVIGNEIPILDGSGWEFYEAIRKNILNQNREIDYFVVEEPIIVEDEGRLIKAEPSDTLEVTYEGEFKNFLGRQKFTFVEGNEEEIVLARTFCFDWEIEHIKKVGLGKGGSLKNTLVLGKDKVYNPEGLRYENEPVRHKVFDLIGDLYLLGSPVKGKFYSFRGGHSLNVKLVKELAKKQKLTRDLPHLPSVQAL
Chain of LpxC from E. coli (P0A725 whole entry): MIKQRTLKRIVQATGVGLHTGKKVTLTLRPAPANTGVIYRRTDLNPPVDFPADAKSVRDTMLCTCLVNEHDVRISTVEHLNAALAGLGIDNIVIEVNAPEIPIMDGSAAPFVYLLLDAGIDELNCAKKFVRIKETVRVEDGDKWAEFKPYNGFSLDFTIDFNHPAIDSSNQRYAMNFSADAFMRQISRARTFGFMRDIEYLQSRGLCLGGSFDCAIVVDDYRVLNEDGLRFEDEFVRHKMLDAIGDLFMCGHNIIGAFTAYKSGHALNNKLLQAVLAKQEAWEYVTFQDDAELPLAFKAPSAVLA

As for `C[C@@H](O)[C@H](NC(=O)c1ccc(C#Cc2ccc(CN3CCOCC3)cc2)cc1)C(=O)NO` [CHIR-090], the “tR” value on ecLpxC stood at 66 ± 30 min. In addition, the MIC in series [1] is on record as 0.62 µM (≈ 0.271 µg/mL). Moreover, the “MIC (μM) FabZ*” value in series [2] (hyperactive FabZ strain (L85P)) was found to be 0.010 µM (≈ 0.00437 µg/mL). Also, in series [3], the “PAE (h) 1x, Wild-type” value came to 0 h; the “PAE (h) 4x, Wild-type” value stood at 0 h; the “PAE (h) 16x, Wild-type” value is on record as 0 h. In the series with FabZ* E. coli, the “PAE (h) 1x, FabZ*” value is given as 0.5 ± 0.1 h; the “PAE (h) 4x, FabZ*” value was 1.34 ± 0.04 h and 1.3 ± 0.3 h; the “PAE (h) 16x, FabZ*” value is given as 2.4 ± 0.2 h. Further, in [4], the “PAE (h) (sub-MIC AZ) 16x(0.2)” value came to 2.8 ± 0.3 h and the “PAE (h) (sub-MIC AZ) 16x(0.4)” value came to 3.7 ± 0.2 h. Also, the “residence time on aaLpxC” value in series [5] was greater than 24 h. Besides, in [6], the “reduction of the starting log CFU/mL of the bacterial culture” value is given as “greater than 3 logs”.
With `CC(C)(N)[C@H](NC(=O)c1ccc(C#CC#C[C@@H]2C[C@H]2CO)cc1)C(=O)NO` [ACHN-975], the “toxicity in clinical trials” value in [7] is listed as “dose-limiting cardiovascular toxicity”.
Consider `CC(CCn1ccc(-c2ccc(-n3nccn3)cc2)cc1=O)(C(=O)NO)S(C)(=O)=O` (racemic) [PT805, 4-(4-(4-(2H-1,2,3-Triazol-2-yl)phenyl)-2-oxopyridin-1(2H)-yl)-N-hydroxy-2-methyl-2-(methylsulfonyl)butanamide], for which the MIC in series [1] (Escherichia coli) came out at 0.16 µM (≈ 0.069 µg/mL). Also, in series [2], the MIC came out at 0.019 µM (≈ 0.0082 µg/mL). For the same compound, in series [3], the “PAE (h) 1x, Wild-type” value was found to be 0 h; the “PAE (h) 4x, Wild-type” value turned out to be 0 h; the “PAE (h) 16x, Wild-type” value is listed as 0 h. Also, in the series on FabZ* E. coli, the “PAE (h) 1x, FabZ*” value amounted to 0.8 ± 0.1 h; the “PAE (h) 4x, FabZ*” value was 1.53 ± 0.13 h and 1.5 ± 0.1 h; the “PAE (h) 16x, FabZ*” value came to 2.1 ± 0.2 h. Besides, in [4], the “PAE (h) (sub-MIC AZ) 16x(0.2)” value is reported as 1.4 ± 0.1 h and the “PAE (h) (sub-MIC AZ) 16x(0.4)” value was 2.4 ± 0.1 h. In series [6], the “reduction of the starting log CFU/mL of the bacterial culture” value is given as “greater than 3 logs”. The “reduction of the starting log CFU/mL of the bacterial culture” value in the series on P. aeruginosa PAO1 [8] is on record as “more than 3 logs”. The MIC in the series with P. aeruginosa PAO1 [9] was 1.56 µM (≈ 0.673 µg/mL). The “PAE (h) 4x” value in the series on P. aeruginosa PAO1 [10] (PAO1, 4xMIC for 1 h) came to 1.4 ± 0.1 h. Also, the “PAE (h) 8x” value in the series on P. aeruginosa PAO1 [10] (PAO1, 8xMIC for 1 h) is recorded as 2.2 ± 0.3 h. Further, in the series on P. aeruginosa PAO1 [10] (PAO1, 16xMIC for 1 h), the “PAE (h) 16x” value came to 3.4 ± 0.2 h. Also, the MIC in series [11] came to 0.4 µM (≈ 0.173 µg/mL).
In the case of `CC(O)(C(F)F)C(NC(=O)c1ccc(C#CC#Cc2ccc(N)cc2)cc1)C(=O)NO` (centres unmarked) [LPC-058], the “residence time on LpxC from E. coli” value on LpxC from E. coli was roughly 12 h.
With `CC(CCn1ccc(-c2ccc(-c3cn(Cc4ccccc4)nn3)cc2)cc1=O)(C(=O)NO)S(C)(=O)=O` (racemic) [PT810, 4-(4-(4-(1-Benzyl-1H-1,2,3-triazol-4-yl)phenyl)-2-oxopyridin-1(2H)-yl)-N-hydroxy-2-methyl-2-(methylsulfonyl)butanamide], the “tR” value on ecLpxC came out at 6 ± 3 min. Moreover, in [1] (Escherichia coli), the MIC was 0.17 µM (≈ 0.0887 µg/mL). For the same compound, the MIC in series [2] came to 0.08 µM (≈ 0.0417 µg/mL). In addition, in series [3], the “PAE (h) 1x, Wild-type” value is reported as 0 h; the “PAE (h) 4x, Wild-type” value was determined as 0 h; the “PAE (h) 16x, Wild-type” value is reported as 0 h. Also, in the series with FabZ* E. coli, the “PAE (h) 1x, FabZ*” value was 0.7 ± 0.2 h; the “PAE (h) 4x, FabZ*” value was 0.76 ± 0.19 h and 0.8 ± 0.2 h; the “PAE (h) 16x, FabZ*” value worked out at 0.9 ± 0.2 h. Moreover, in series [4], the “PAE (h) (sub-MIC AZ) 16x(0.2)” value was 1.9 ± 0.8 h and the “PAE (h) (sub-MIC AZ) 16x(0.4)” value amounted to 2.6 ± 0.8 h. Affinity at paLpxC (37° C., fluorescence competition) was put at a Ki of 0.0106 ± 0.0089 nM. In addition, the “tR (min) Fluorescence assay” value on paLpxC (37° C., tR = 1/koff) was 57 min and 57.3 ± 18.4 min. For the same compound, on paLpxC (read-out: Koff (s^−1)), the koff (in general, the first-order rate constant of dissociation) stood at 0.00032 ± 0.0001 s⁻¹. In addition, the kon (in general, the rate constant with which the complex forms) at paLpxC (read-out: Kon (μM^−1s^−1)) is 43.8 ± 31.7 µM⁻¹ s⁻¹. In [6], the “reduction of the starting log CFU/mL of the bacterial culture” value is given as “greater than 3 logs”. Moreover, the MIC in the series on P. aeruginosa PAO1 [9] was 12.5 µM (≈ 6.52 µg/mL). In series [11], the MIC came to 0.78 µM (≈ 0.407 µg/mL).
